Data reported in patent US20100137313A1 (ASTRAZENECA AB, priority 2008, published 2010).

Molecular target: S. pneumoniae Topoisomerase IV ATPase (ParE) (Streptococcus pneumoniae serotype 4, UniProt Q59961)
Test: S. pneumoniae Topoisomerase IV ATPase inhibition
Type: biochemical
Settings: values marked * are an average of two or more data points, read-out: % Inh (13 μM) of S. pneumoniae Topoisomerase IV ATPase
Procedure, shortened: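 Malachite green/ammonium molybdate phosphate detection, A650. 1.25 nM ParE, 160 μM ATP, sheared salmon sperm DNA 5 μg/ml, 20 mM Tris pH 8.0, 8.0 mM MgCl2. Controls: 2% DMSO = 0%, 20 μM EDTA = 100% inhibition; IC50 over 10 concentrations.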

Sequence of S. pneumoniae Topoisomerase IV ATPase (ParE) (Q59961 whole entry): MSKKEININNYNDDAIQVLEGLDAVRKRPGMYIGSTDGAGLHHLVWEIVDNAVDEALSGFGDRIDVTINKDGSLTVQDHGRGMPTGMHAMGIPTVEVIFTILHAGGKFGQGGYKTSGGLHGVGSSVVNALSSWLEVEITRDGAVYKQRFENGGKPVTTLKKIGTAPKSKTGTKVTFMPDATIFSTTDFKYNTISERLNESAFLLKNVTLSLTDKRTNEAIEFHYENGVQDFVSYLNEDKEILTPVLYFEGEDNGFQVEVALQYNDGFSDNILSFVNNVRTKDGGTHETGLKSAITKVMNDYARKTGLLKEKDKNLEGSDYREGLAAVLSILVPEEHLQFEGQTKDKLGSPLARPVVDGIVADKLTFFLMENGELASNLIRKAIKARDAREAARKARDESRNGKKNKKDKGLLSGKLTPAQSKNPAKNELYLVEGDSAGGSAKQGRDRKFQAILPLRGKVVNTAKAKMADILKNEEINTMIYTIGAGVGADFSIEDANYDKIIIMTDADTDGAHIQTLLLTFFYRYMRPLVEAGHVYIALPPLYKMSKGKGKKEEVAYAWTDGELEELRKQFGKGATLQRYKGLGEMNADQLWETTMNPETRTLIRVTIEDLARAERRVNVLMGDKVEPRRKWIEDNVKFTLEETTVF

## CC(C)(C)OC(=O)NCCNc1nc(Nc2ccc(F)c(Cl)c2)ncc1-c1cncc(C(=O)O)c1 [Example 225, 5-[4-(2-tert-Butoxycarbonylamino-ethylamino)-2-(3-chloro-4-fluoro-phenylamino)-pyrimidin-5-yl]-nicotinic acid]
  inhibition at 13 µM: 81.1%

## CN(C(=O)c1cccc(-c2cnc(Nc3ccc(F)c(Cl)c3)nc2-n2ccc(C(F)(F)F)n2)c1)S(C)(=O)=O [Example 878, 3-(2-(3-chloro-4-fluorophenylamino)-4-(3-(trifluoromethyl)-1H-pyrazol-1-yl)pyrimidin-5-yl)-N-methyl-N-(methylsulfonyl)benzamide]
  inhibition at 13 µM: 88%

## COc1nc(OC)c(-c2cnc(Nc3ccc(F)c(Cl)c3)nc2-n2ccc(C(F)(F)F)n2)cc1C(=O)O [Example 1132, 5-(2-(3-chloro-4-fluorophenylamino)-4-(3-(trifluoromethyl)-1H-pyrazol-1-yl)pyrimidin-5-yl)-2,6-dimethoxynicotinic acid]
  inhibition at 13 µM: 100%

## Cc1cc(C(F)(F)F)nn1-c1nc(Nc2cccc(S(C)(=O)=O)c2)ncc1-c1cccc(/C=C/C(=O)O)c1 [Example 624, (2E)-3-[3-(2-{[3-(methylsulfonyl)phenyl]amino}-4-[5-methyl-3-(trifluoromethyl)-1H-pyrazol-1-yl]pyrimidin-5-yl)phenyl]prop-2-enoic acid]
  inhibition at 13 µM: 89%

## COc1cc(Nc2ncc(-c3cnc(OC)c(C(=O)NS(=O)(=O)c4sc(C)nc4C)c3)c(-n3nc(C(F)(F)F)cc3C)n2)cc(OC)c1 [Example 837, 5-{2-[(3,5-dimethoxyphenyl)amino]-4-[5-methyl-3-(trifluoromethyl)-1H-pyrazol-1-yl]pyrimidin-5-yl}-N-[(2,4-dimethyl-1,3-thiazol-5-yl)sulfonyl]-2-methoxypyridine-3-carboxamide]
  inhibition at 13 µM: 94%

## CCOC(=O)c1cncc(-c2cnc(Nc3ccc(F)c(Cl)c3)nc2N2CCC(NC(C)=O)CC2)c1 [Example 129, ethyl 5-[4-(4-acetamidopiperidin-1-yl)-2-[(3-chloro-4-fluorophenyl)amino]pyrimidin-5-yl]pyridine-3-carboxylate]
  inhibition at 13 µM: 74.9%

## CC(=O)c1cccc(Nc2ncc(-c3cccc(/C=C/C(=O)O)c3)c(-n3nc(C(F)(F)F)cc3C)n2)c1 [Example 689, (2E)-3-(3-{2-[(3-acetylphenyl)amino]-4-[5-methyl-3-(trifluoromethyl)-1H-pyrazol-1-yl]pyrimidin-5-yl}phenyl)prop-2-enoic acid]
  inhibition at 13 µM: 99%

## O=C(O)c1cncc(-c2cnc(Nc3cccc(F)c3)nc2-n2ccc(C(F)(F)F)n2)c1 [Example 641, 5-{2-[(3-fluorophenyl)amino]-4-[3-(trifluoromethyl)-1H-pyrazol-1-yl]pyrimidin-5-yl}pyridine-3-carboxylic acid]
  inhibition at 13 µM: 100%

## COc1cc(Nc2ncc(-c3cnc(OC)c(C(=O)O)c3)c(-n3ccc(C4CC4)n3)n2)cc(OC)c1 [Example 1143, 5-(4-(3-cyclopropyl-1H-pyrazol-1-yl)-2-(3,5-dimethoxyphenylamino)pyrimidin-5-yl)-2-methoxynicotinic acid]
  inhibition at 13 µM: 100%

## O=C(O)/C=C/c1cccc(-c2cnc(Nc3ccc(F)c(Cl)c3)nc2-n2nc3cccnc3n2)c1 [Example 334, (2E)-3-(3-{2-[(3-chloro-4-fluorophenyl)amino]-4-(2H-[1,2,3]triazolo[4,5-b]pyridin-2-yl)pyrimidin-5-yl}phenyl)prop-2-enoic acid]
  inhibition at 13 µM: 104%

## O=C(O)c1cncc(-c2cnc(Nc3ccc(F)c(Cl)c3)nc2N2CCC(O)C2)c1 (stereo not drawn) [Example 250, 5[2-[(3-chloro-4-fluorophenyl)amino]-4-(3-hydroxypyrrolidin-1-yl)pyrimidin-5-yl]pyridine-3-carboxylic acid]
  inhibition at 13 µM: 74.4%

## CN(C)CCCNc1nc(Nc2ccc(F)c(Cl)c2)ncc1-c1cccc([N+](=O)[O-])c1 [Example 14, N^2-(3-chloro-4-fluorophenyl)-N^4-[3-(dimethylamino)propyl]-5-(3-nitrophenyl) pyrimidin-2,4-diamine]
  inhibition at 13 µM: 100%
